From ChEMBL document CHEMBL1201862, “PubChem BioAssay data set” (2004)
One block for each compound: values may come before it. Activity calls are given as the source filed them.

Columns and labels:
Coagulation factor XII = target: T1, Coagulation factor XII (Homo sapiens, UniProt P00748); assay: activated coagulation factor XII inhibitor potency, concentration-effect curve, cell-free (AID 716); assay type: functional
T1 sequence (P00748 whole entry): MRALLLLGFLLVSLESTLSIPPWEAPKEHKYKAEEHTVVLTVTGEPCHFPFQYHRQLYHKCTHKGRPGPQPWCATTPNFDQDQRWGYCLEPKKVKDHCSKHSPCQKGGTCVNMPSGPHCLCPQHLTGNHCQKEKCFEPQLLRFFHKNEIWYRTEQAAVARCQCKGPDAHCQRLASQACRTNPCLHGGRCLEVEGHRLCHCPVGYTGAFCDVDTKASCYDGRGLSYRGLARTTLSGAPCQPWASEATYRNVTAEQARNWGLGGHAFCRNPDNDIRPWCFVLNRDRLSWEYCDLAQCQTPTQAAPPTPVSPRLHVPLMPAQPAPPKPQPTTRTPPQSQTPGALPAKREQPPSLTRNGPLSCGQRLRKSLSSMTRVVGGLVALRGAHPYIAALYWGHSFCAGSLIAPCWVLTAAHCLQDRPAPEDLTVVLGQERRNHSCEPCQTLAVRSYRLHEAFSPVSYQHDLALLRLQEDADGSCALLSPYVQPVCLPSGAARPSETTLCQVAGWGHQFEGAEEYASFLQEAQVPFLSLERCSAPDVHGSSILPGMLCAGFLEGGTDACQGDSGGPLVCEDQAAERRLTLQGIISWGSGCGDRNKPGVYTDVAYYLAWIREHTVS

X-box-binding protein 1 = X-box-binding protein 1 (Homo sapiens, UniProt P17861); assay type: functional, Cricetulus griseus;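 also: confirmatory dose-response counter-screen serving a CHOP assay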
[1] = target: DNA damage-inducible transcript 3 protein (Mus musculus, UniProt P35639); assay type: functional, Cricetulus griseus
[2] = IC50 of Artemis nuclease activity blockers – biochemical, fluorescence intensity, dose response (AID 720701); assay type: functional;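 also: Artemis endonuclease enzyme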
[3] = viability of PTEN-deleted HCT116 cells – cell-based, HCT116 PTEN knockout, dose response (AID 1047); assay type: functional;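 also: HCT116 colon tumor cells with PTEN knocked out; cells exposed to compound for 60 hours before readout; potency for loss of cell viability measured by luminescence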
[4] = viability of HCT116 lacking mutant beta-catenin – cell-based, human colon tumor, dose response (AID 1045); assay type: functional;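 also: HCT116 colon tumor cells with beta catenin knocked out; cells exposed to compound for 60 hours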
SUMO-activating enzyme = SUMO-activating enzyme (Homo sapiens, UniProt Q9UBT2); assay: blockers of UBC9-mediated SUMO conjugation – biochemical, AlphaScreen, SUMOylation inhibitor project, confirmation (AID 2018); assay type: functional
[5] = target: Alkaline phosphatase, placental type (Homo sapiens, UniProt P05187); assay: human placental alkaline phosphatase inhibition – biochemical, luminescence, confirmation (AID 1512); assay type: functional
[6] = target: T2, Kappa-type opioid receptor (Homo sapiens, UniProt P41145); assay: SAR analysis of Antagonists of the Kappa Opioid Receptor (KOR) using an Image-Based Assay - Set 3. [Related pubchem assays (depositor defined):AID1777, AID1785]; assay type: functional
Mu-type opioid receptor = Mu-type opioid receptor (Homo sapiens, UniProt P35372); assay: SAR Analysis of Antagonists of the MOR Receptor using an Image-Based Assay - Set 3. [Related pubchem assays (depositor defined):AID1777, AID1785, AID1786, AID1966, AID2133, AID2136, AID2284, AID2285, AID2420]; assay type: functional
[7] = target: T2, Kappa-type opioid receptor; assay: SAR analysis of small molecule antagonists of the kappa opioid receptor via a luminescent beta-arrestin assay - Set 3. [Related pubchem assays (depositor defined):AID1777, AID1778, AID1785, AID1786, AID1966, AID2133, AID2136, AID2285, AID2495]; assay type: functional
[8] = target: Delta-type opioid receptor (Homo sapiens, UniProt P41143); assay: SAR Analysis of Antagonists of the DOR Receptor using an Image-Based Assay - Set 3. [Related pubchem assays (depositor defined):AID1777, AID1785]; assay type: functional;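 also: U2OS cells expressing DOR1 and beta-arrestin GFP stimulated with 100 nM SNC80; imaging of GFP-tagged beta-arrestin moving into spots after receptor activation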
[9] = target: T3, Mannose-6-phosphate isomerase (Homo sapiens, UniProt P34949); assay: phosphomannose isomerase inhibition – biochemical, fluorescence intensity, confirmation (AID 1535)
T3 sequence (P34949 whole entry): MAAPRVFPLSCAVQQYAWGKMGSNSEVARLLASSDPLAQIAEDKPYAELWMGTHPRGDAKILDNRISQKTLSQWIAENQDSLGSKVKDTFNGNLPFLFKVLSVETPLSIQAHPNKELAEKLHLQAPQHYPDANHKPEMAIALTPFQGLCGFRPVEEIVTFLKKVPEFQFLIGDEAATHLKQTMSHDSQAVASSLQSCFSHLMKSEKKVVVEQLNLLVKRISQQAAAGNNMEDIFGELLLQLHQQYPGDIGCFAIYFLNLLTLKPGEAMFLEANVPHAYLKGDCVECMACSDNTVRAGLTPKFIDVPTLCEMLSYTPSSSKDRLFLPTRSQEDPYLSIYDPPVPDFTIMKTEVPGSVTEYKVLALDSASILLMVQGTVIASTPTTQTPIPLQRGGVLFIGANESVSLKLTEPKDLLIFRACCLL

[10] = target: Phosphoethanolamine/phosphocholine phosphatase (Homo sapiens, UniProt Q8TCT1); assay: SAR assay for compounds that inhibit PHOSPHO1. [Related pubchem assays (depositor defined):AID1545, AID1565, AID1574]
Phosphomannomutase 2 = Phosphomannomutase 2 (Homo sapiens, UniProt O15305); assay: Counter screen SAR assay for PMM2 inhibitors via a fluorescence intensity assay. [Related pubchem assays (depositor defined):AID1545, AID1574]
[11] = target: T4, Alkaline phosphatase, tissue-nonspecific isozyme (Homo sapiens, UniProt P05186); assay: potency against alkaline phosphatase TNAP – biochemical, luminescent, dose response, SAR follow-up (AID 1056)
T4 sequence (P05186 whole entry): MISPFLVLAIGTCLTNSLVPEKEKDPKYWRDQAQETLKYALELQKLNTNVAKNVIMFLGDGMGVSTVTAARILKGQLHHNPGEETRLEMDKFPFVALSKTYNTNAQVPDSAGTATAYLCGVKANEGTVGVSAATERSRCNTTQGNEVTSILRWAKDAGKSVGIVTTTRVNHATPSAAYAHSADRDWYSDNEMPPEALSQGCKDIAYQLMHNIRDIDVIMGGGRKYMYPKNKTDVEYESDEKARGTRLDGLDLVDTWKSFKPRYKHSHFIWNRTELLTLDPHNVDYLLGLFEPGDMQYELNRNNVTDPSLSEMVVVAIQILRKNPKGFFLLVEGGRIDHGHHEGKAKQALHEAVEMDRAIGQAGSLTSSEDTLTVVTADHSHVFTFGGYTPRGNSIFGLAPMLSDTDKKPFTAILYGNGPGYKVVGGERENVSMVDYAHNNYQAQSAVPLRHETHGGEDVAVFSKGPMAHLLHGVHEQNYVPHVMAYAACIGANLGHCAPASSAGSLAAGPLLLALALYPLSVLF

[12] = target: T5, Runt-related transcription factor 1/Core-binding factor subunit beta (Homo sapiens, UniProt Q01196+Q13951); assay: Runt domain/CBFb-SMMHC interaction disruptors – biochemical, TR-FRET (AID 1438); assay type: protein assay
[13] = target: T5, Runt-related transcription factor 1/Core-binding factor subunit beta; assay: disruptors of Runt domain/CBFb-SMMHC interaction – biochemical, FRET, Cerulean-Runt, Venus-CBFb-SMMHC, uHTS, […] (AID 1434); assay type: protein assay

T2 sequence (P41145 whole entry): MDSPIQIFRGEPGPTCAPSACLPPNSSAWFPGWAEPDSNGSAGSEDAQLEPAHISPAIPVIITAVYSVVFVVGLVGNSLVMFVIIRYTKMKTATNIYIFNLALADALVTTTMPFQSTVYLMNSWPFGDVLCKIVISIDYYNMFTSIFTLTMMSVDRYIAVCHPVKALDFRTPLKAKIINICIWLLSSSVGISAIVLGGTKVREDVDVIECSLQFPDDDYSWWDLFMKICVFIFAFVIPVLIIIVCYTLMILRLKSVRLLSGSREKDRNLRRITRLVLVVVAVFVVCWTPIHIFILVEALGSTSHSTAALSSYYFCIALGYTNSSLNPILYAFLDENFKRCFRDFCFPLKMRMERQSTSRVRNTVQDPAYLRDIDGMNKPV
T5 sequence (Q01196 whole entry, the tested form may be a part): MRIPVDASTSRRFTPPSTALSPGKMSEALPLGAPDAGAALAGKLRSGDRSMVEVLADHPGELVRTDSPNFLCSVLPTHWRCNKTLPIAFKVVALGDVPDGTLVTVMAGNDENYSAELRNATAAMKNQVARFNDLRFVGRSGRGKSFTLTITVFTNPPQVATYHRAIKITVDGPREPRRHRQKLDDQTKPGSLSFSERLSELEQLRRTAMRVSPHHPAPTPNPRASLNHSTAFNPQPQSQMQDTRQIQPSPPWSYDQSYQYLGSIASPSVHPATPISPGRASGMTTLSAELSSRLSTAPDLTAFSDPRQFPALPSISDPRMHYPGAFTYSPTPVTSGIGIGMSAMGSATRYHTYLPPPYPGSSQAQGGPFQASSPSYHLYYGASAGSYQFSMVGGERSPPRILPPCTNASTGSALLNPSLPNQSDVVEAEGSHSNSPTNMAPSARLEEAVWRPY
T5 sequence (Q13951 whole entry, the tested form may be a part): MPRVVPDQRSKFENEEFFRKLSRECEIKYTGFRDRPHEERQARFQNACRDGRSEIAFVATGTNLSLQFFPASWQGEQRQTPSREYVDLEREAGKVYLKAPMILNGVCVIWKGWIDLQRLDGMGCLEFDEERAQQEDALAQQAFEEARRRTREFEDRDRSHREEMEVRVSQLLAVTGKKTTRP
Sequence of DNA damage-inducible transcript 3 protein (P35639 whole entry): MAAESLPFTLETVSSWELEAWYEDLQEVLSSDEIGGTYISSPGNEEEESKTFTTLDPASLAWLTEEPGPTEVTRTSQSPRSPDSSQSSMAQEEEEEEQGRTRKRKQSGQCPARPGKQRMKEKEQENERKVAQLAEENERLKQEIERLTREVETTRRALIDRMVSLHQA
Sequence of X-box-binding protein 1 (P17861 whole entry): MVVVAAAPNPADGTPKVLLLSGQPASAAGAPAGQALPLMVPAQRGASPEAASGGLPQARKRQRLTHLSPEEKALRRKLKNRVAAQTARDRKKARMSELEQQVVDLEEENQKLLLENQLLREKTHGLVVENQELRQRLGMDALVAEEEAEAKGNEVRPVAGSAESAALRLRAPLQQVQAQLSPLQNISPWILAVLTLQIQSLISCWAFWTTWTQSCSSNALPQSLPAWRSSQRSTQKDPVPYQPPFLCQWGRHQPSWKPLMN
Sequence of Delta-type opioid receptor (P41143 whole entry): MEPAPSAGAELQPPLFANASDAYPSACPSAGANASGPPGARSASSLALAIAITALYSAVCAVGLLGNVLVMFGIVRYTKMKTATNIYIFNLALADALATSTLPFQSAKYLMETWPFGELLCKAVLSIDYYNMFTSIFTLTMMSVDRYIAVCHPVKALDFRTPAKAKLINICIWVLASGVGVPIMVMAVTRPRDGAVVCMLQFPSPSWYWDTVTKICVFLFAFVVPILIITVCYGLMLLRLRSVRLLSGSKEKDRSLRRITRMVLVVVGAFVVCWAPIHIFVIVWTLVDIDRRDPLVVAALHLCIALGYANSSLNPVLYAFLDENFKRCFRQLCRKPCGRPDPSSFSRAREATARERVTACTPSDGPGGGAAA
Sequence of Phosphoethanolamine/phosphocholine phosphatase (Q8TCT1 whole entry): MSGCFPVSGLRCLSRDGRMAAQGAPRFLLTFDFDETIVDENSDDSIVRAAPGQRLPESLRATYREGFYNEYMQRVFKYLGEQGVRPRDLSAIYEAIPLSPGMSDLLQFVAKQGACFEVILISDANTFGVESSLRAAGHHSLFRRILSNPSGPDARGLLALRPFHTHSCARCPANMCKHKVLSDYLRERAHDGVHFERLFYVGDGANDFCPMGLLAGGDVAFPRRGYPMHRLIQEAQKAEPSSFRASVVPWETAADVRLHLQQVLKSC
Sequence of SUMO-activating enzyme (Q9UBE0 whole entry): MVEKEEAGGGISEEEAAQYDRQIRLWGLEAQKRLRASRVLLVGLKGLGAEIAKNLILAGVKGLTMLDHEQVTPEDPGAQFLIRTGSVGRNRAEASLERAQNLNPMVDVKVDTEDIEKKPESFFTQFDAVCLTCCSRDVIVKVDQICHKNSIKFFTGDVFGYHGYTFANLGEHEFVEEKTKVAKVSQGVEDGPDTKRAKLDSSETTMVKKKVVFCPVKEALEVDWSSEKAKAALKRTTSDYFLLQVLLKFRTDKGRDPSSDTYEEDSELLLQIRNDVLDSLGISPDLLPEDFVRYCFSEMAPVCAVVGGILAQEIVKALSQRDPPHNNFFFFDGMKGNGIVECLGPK
Sequence of SUMO-activating enzyme (Q9UBT2 whole entry): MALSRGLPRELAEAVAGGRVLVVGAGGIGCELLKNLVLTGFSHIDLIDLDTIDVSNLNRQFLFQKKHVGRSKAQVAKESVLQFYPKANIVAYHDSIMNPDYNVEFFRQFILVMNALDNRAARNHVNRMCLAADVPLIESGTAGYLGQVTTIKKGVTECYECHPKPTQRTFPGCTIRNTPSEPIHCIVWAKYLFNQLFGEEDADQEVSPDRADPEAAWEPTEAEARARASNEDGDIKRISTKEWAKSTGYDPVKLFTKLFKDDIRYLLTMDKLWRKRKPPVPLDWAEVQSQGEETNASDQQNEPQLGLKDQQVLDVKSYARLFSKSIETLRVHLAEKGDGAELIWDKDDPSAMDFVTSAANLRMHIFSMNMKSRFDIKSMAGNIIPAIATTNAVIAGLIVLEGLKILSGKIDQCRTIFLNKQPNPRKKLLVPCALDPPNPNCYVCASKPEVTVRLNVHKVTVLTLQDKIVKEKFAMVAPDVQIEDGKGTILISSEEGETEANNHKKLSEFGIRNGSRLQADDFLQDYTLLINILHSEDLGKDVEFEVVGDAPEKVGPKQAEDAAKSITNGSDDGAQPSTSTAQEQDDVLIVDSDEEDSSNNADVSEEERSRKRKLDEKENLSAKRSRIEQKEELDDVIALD
Sequence of Phosphomannomutase 2 (O15305 whole entry): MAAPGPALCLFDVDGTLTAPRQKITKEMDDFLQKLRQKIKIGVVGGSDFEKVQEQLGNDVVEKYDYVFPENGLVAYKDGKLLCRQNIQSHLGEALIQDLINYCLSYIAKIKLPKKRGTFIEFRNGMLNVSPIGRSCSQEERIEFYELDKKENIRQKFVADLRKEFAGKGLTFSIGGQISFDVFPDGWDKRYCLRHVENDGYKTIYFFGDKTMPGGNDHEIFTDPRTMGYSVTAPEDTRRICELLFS
Sequence of Alkaline phosphatase, placental type (P05187 whole entry): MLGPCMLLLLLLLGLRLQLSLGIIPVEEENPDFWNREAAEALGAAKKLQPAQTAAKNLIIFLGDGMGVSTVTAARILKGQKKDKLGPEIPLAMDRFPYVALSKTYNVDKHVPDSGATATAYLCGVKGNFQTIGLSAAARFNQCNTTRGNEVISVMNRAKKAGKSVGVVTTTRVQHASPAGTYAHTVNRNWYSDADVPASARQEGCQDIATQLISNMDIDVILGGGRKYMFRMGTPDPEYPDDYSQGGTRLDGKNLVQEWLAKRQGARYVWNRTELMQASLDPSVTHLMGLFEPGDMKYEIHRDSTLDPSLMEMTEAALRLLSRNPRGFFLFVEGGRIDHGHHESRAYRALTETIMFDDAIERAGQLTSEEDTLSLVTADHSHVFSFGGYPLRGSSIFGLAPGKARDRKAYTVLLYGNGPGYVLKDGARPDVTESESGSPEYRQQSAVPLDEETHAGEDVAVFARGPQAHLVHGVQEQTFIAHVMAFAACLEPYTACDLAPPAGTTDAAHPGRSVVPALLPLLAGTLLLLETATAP
Sequence of Mu-type opioid receptor (P35372 whole entry): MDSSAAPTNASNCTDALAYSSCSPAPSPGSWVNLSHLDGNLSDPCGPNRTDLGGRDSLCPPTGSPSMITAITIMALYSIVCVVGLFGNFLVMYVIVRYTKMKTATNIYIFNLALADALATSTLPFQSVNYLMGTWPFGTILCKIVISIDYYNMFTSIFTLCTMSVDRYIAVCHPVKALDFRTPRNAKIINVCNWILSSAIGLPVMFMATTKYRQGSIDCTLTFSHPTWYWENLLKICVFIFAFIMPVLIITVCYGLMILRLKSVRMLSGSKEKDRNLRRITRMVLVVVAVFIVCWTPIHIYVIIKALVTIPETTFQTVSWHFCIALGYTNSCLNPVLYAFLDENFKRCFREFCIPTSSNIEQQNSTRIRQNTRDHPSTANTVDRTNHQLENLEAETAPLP

Structure (SMILES): Cn1c(-c2ccc(C=O)s2)nc2c3ccccc3c3ccccc3c21
IC50 [2]: > 20 µM (inactive)
EC50 [3]: 25.7 µM (active)
EC50 [4]: 24.9 µM (active)
IC50 (SUMO-activating enzyme): > 100 µM (inactive)

Structure (SMILES): COCCNC(=O)NC1(C(F)(F)F)Oc2cc(Cl)c(Cl)cc2O1
IC50 [5]: > 100 µM (inactive)

Structure (SMILES): Cc1ccc(C)c(-n2[se]c3ccccc3c2=O)c1
IC50 [9]: 88 µM (active)
IC50 [10]: 36 µM (inactive)
IC50 (Phosphomannomutase 2): > 100 µM (inactive)

Structure (SMILES): CC(C)NCC(=O)c1ccc(O)c(O)c1
IC50 [11]: > 100 µM (inactive)

Now from value to compound, other results behind:

IC50 (Coagulation factor XII): > 50 µM (inactive)
Structure (SMILES): O=C(NCc1n[nH]c(=S)n1-c1ccccc1)c1ccco1

Absolute IC50 (XBP1) (X-box-binding protein 1): 10 µM
Structure (SMILES): Cc1ccc(NC(=O)c2cc(NC(=O)c3ccco3)ccc2N2CCCCC2)cc1
Absolute IC50 (CHOP) [1]: 10 µM

IC50 [6]: 1.31 µM (active)
IC50 (Mu-type opioid receptor): > 32 µM (inactive)
IC50 [7]: 4.65 µM (active)
IC50 [8]: > 32 µM (inactive)
Structure (SMILES): O=C(Cn1c(=O)c2cccn2c2cccnc21)NCCCN1CCC(Cc2ccccc2)CC1

IC50 [12]: 10.1 µM (active)
IC50 [13]: > 100 µM (inactive)
Structure (SMILES): C/C(=N\Nc1nc(-c2cc(C)ccc2C)cs1)c1cc2c(ccc3ccccc32)oc1=O
